According to US4648996A, “Phenyl substituted-2,4,6,8-nonatetraenoic acid” (Hoffmann-La Roche Inc., priority 1985, dated 1987):
Like-named read-outs stand apart in the source and are kept apart here.

How the values were obtained:
[1] = tested on: adjuvant arthritis in rats; experiment: Chronic adjuvant arthritis test (Table I); type: in vivo, male Charles River Lewis rats; details: for change in vivo at 76 µmol/kg / change in vivo at 75 µmol/kg / change in vivo at 96 µmol/kg / change in vivo at 60 µmol/kg: Rattus norvegicus, 552 h, day 23; for Body Weight Gain: vehicle 28-31
Method: That the compounds of this invention are effective anti-arthritic agents can be seen from the results obtained when these compounds are administered to rats in accordance with the chronic adjuvant arthritis test system disclosed in Billingham and Davies "Handbook of Experimental Pharmacology" (editors J. R. Vane and S. H. Ferreira) Vol. 50/II, pg. 108-144, Springer-Verlag, Berlin, 1979).
In this procedure, adjuvant arthritis was induced by the subplantar injection on day 0 of 0.05 ml of adjuvant [a suspension of heat-killed, dessicated Mycobacterium butyricum, 0.5% (w/v), in heavy mineral oil containing 0.2% digitonin] into the right hind paw of male Charles River Lewis rats (120-140 g) that were housed individually and given food and water ad lib. Paw volumes (both hind paws) were measured immediately after injection of the adjuvant. Paw Volumes were also measured, to follow the development of inflammation-induced swelling in the arthritic paws, at intervals of 3 to 7 days by immersion of the paw to the level of the lateral malleolus in a mercury plethysmograph.
Drugs were administered once a day (starting on the day of adjuvant injection) by […] using Tween 80 (polyoxyethylene sorbitan mono-oleate) at a dose of 0.25 ml/100 g body weight as the vehicle. Arthritic control rats received daily doses of the vehicle only. On day 23-25, the rats were sacrificed, plasma collected and plasma fibrinogen levels determined (ammonium sulfate turbidimetric method) as described by Exner et al., Amer. J. Clin Path, 71:521-527 (1979). Anti-inflammatory activity of the test drugs were determined by comparing the extent of paw swelling (paw volume on a particular day, i.e. day four to day twenty-five, minus the paw volume on day 0) in drug-treated arthritic rats with the extent of paw swelling in the vehicle-treated arthritic rats. Drug induced decreases in the level of plasma fibrinogen, an acute phase protein that is elevated in the plasma of rats with adjuvant-induced arthritis, were also used to quantitate the anti-inflammatory activity.

[2] = tested on: established adjuvant arthritis in rats; experiment: Effect on the course of established adjuvant arthritis; type: in vivo, Male Lewis rats from Charles River; details: 1 mg/kg, 7 days
Method: Male Lewis rats from Charles River were used for these experiments.
Heat-killed, dessicated Mycobacteriam butyricum.
Adjuvant arthritis was induced by the injection of 0.1 ml of adjuvant [a suspension of heat-killed, dessicated Mycobacterium butyricum, 0.5% CW/V) in heavy mineral oil containing 0.2% digitonin] into the base of the tail. The arthritis was allowed to develop for 21 days and then the volume of both hind paws were measured using a mercury plethysmograph. The rats were divided into groups of 8 with equal mean paw volumes and then the rats were treated with Compound A, indomethacin (as a control drug), or vehicle for 7 days at the end of the treatment period, the volumes of both hind paws were again measured to assess antiinflammatory effects. Body weight changes were also followed and, at the end of the experiment, plasma was collected for determination of plasma fibrinogen (Exner et. al., Amer. J. Clin. Path, 71: 521-527).
^b Drugs were administered once a day for 7 days by intubation
^c Change in paw volume/body weight equals paw volume body weight on […]

[3] = tested on: impregnated sponge granuloma in the rat; experiment: Impregnated sponge granuloma test in the rat; type: in vivo, AHH/R female rats (PVG derived)
Method: AHH/R female rats (PVG derived) with an initial weight range of 120-140 g. were used.
Sponge preparation. Pellets (6.5 mm diameter) were punched from cellulose sponge cloth ("Wettex") and 0.1 ml. of a suspension containing 0.5 mg.ml^-1 of heat killed M. tuberculosis (human strains C, DT and PN) in sterile saline was applied to each pellet. The pellets were dried, weighed and autoclaved.
Rats were randomly divided into groups of five and daily dosing with test compounds was commenced. After the fifth dose the rats were anaesthetised with Sagatal (45 mg.kg^-1 i.p.) the backs were shaved and two pellets were implanted subcutaneously (one each side) into each rat through a small dorsal midline incision. The incision was closed and the rats allowed to recover from the anaesthetic.
Seven days after implantation the rats were killed and the pellets were removed, dissected free of extraneous tissue and weighed. Each pellet was then placed in a 4 ml aliquot of distilled water, chopped with fine scissors and sonicated. After centrifugation the Na^+ and K^+ content of the supernatant was determined by flame photometry. In addition the adrenal and thumus glands from each rat were dissected out and weighed and the lower hind limbs were removed for measurement of tibial bone breaking strain. Body weights were also recorded throughout the test period.
The mean ± SE for each of the parameters was calculated and differences from the control values were determined by Student's t test (2-tailed). Percentage reductions of granuloma weight, Na^+ and K^+ content and percentage changes of adrenal and thymus, weight and tibial breaking strain were determined.

[4] = tested on: adjuvant arthritis in the rat; experiment: Developing adjuvant arthritis in the rat; type: in vivo, AHH/R Female rats (PVG derived); details: 15 mg.kg^-1 p.o.
Method: AHH/R Female rats (PVG derived with an initial weight range of 110 to 140 g. were used.
Adjuvant for injection. An homogenized suspension of heat killed M tuberculosis (Human strains C, DT and PN), 5 mg.Ml^-1 in liquid paraffin was prepared.
Rats were randomly split into groups of five and adjuvant arthritis was induced by the sub-plantar injection of 0.1 ml of adjuvant suspension into the right hind paw of each rat. Test compounds were administered by intubation each morning commencing the day of adjuvant injection. Two groups of control rats were dosed with the vehicle as was a group of three normal rats included for comparative purposes. Dosing was carried out daily until the end of the test on day 15 except for the first weekend (days 5 & 6). Treatment groups are shown in Table III and include etretinate as standard retinoid.
Measurements of right hind paw volume were made initially and on days 2 and 4 after and adjufant injection (primary phase). Right and left hind paw volume were then measured, on day 8 and every two or three days until the end of the experiment on day 15 (secondary phase). At this time the mobility of each ankle joint and the incidence and severity of secondary lesions on nose, ears, forepaws, left hind paw and tail were also assessed in terms of degrees of flexion possible and by using an arbitrary scoring system, respectively.
The time course curves for the injected paws were integrated from days 0 to 4 to reflect primary swelling and from days 8 to 15 (secondary swelling). The secondary swelling in the non-injected paw was integrated similarly from days 8 to 15. Calculations were carried out using a specific computer program which computed mean ± se for each integrated area. The significance of differences from controls was determined by Student's t test (2 tailed) and percentage reductions from control areas were calculated. Percentage improvements in joint mobility and percentage reductions in lesion score were also determined. In the latter case the Wilcoxon rank sum test (2 tailed) was used to express the difference from the control score using raw data. Mean body weight change in each group was recorded.

[5] = tested on: MBSA delayed hypersensitivity in mice; experiment: Delayed hypersensitivity to methylated bovine serum albumin (MBSA); type: in vivo, Male and female MFI mice substrain E33; details: 10 mg.kg^-1 oral
Method: Male and female MFI mice substrain E33. Initial weight approximately 25 gm.
Dosing with vehicle and retinoid commenced on day 0 and finished on day 9.
Each group consisted of 4 male and 6 female mice (separately caged). Drugs were dosed orally at a dose volume of 10 ml.kg^-1 (10 doses).

[6] = oral 75 μMol/Kg, read-out: % Reduction in Paw Volume, Left
[7] = oral 75 μMol/Kg, read-out: % Reduction in Paw Volume, Right

SMILES: CCCCCCCCCOc1ccccc1/C=C/C(C)=C/C=C/C(C)=C/C(=O)O [drawing 5]
- change in vivo at 76 µmol/kg ([1]; oral 76 μMol/Kg, read-out: % Reduction in Paw Volume, Left): -58%
- change in vivo at 76 µmol/kg ([1]; oral 76 μMol/Kg, read-out: % Reduction in Paw Volume, Right): -43%
- Plasma fibrinogen % change (reduction) ([1]; oral 76 μMol/Kg): -55%
- Body Weight Gain ([1]; oral 76 μMol/Kg): +27 g

SMILES: COc1ccc2c(c1)c(CC(=O)O)c(C)n2C(=O)c1ccc(Cl)cc1 [Indomethacin, reference compound]
- Plasma Fibrinogen [2]: 978 ± 100 mg/dL
- Change in Body Weight ([2]; day 28 minus day 22): 25.6 ± 3.1 g
- Change in Paw Volume ([2]; day 28 minus day 22, both hind paws): -1.22 ± 0.15 mL
- Plasma fibrinogen % change (reduction) ([1]; oral 3 μMol/Kg): -30%

SMILES: CCCCCCCCCOc1ccc(OC)cc1/C=C/C(C)=C/C=C/C(C)=C/C(=O)O
- change in vivo at 75 µmol/kg [1, 6]: -24%
- change in vivo at 75 µmol/kg [1, 7]: -27%
- Plasma fibrinogen % change (reduction) ([1]; oral 75 μMol/Kg): -21%
- Body Weight Gain ([1]; oral 75 μMol/Kg): +27 g

SMILES: CC(/C=C/c1ccccc1OCCCCCCCCO)=C\C=C\C(C)=C\C(=O)O
- change in vivo at 96 µmol/kg ([1]; oral 96 μMol/Kg, read-out: % Reduction in Paw Volume, Left): -49%
- change in vivo at 96 µmol/kg ([1]; oral 96 μMol/Kg, read-out: % Reduction in Paw Volume, Right): -37%
- Plasma fibrinogen % change (reduction) ([1]; oral 96 μMol/Kg): -35%
- Body Weight Gain ([1]; oral 96 μMol/Kg): +27 g

SMILES: CCCCCCCCCOc1cccc(Cl)c1/C=C/C(C)=C/C=C/C(C)=C/C(=O)O
- change in vivo at 75 µmol/kg [1, 6]: -32%
- change in vivo at 75 µmol/kg [1, 7]: -29%
- Body Weight Gain ([1]; oral 75 μMol/Kg): +35 g

SMILES: CCCCCCCCCOc1cccc(F)c1/C=C/C(C)=C/C=C/C(C)=C/C(=O)O
- change in vivo at 75 µmol/kg [1, 6]: -68%
- change in vivo at 75 µmol/kg [1, 7]: -56%
- Plasma fibrinogen % change (reduction) ([1]; oral 75 μMol/Kg): -51%
- Body Weight Gain ([1]; oral 75 μMol/Kg): +46 g

SMILES: CC1=C(/C=C/C(C)=C/C=C/C(C)=C\C(=O)O)C(C)(C)CCC1 [reference compound]
- change in vivo at 60 µmol/kg ([1]; oral 60 μMol/Kg, read-out: % Reduction in Paw Volume, Left): -49%
- change in vivo at 60 µmol/kg ([1]; oral 60 μMol/Kg, read-out: % Reduction in Paw Volume, Right): -33%
- Plasma fibrinogen % change (reduction) ([1]; oral 60 μMol/Kg): -18%
- Body Weight Gain ([1]; oral 60 μMol/Kg): -7 g

SMILES: CCCCCCCCNc1ccccc1/C=C/C(C)=C/C=C/C(C)=C/C(=O)OCC
- change in vivo at 75 µmol/kg [1, 6]: -53%
- change in vivo at 75 µmol/kg [1, 7]: -53%
- Body Weight Gain ([1]; oral 75 μMol/Kg): +24 g

SMILES: C[C@@H]1C[C@H]2[C@@H]3CCC4=CC(=O)C=C[C@]4(C)[C@@]3(F)[C@@H](O)C[C@]2(C)[C@@]1(O)C(=O)CO [Dexamethasone]
- % reduction of granuloma K+ ([3]; 0.5 mg.kg^-1 sc): 75.2%
- % reduction of granuloma Na+ ([3]; 0.5 mg.kg^-1 sc): 51.2%
- % reduction of granuloma Wet weight ([3]; 0.5 mg.kg^-1 sc): 65.5%

SMILES: CCOC(=O)/C=C(C)/C=C/C=C(C)/C=C/c1c(C)cc(OC)c(C)c1C [Etretinate, reference compound]
- Body Weight Change Days 0-15 [4]: +1.0 g
- Body Weight Change Days 8-15 [4]: -5.0 g
- Joint Mobility (% INC) ([4]; day 15): 50%
- Lesion Score (% RDN) ([4]; day 15): 56%
- % reduction of paw swelling, Primary (right) ([4]; days 0-4): 9%
- % reduction of paw swelling, Secondary (left) ([4]; days 8-15): 67%
- % reduction of paw swelling, Secondary (right) ([4]; days 8-15): 30%
- % change in adrenal weight ([3]; 15 mg.kg^-1 p.o.): +22.9%
- % change in thymus weight ([3]; 15 mg.kg^-1 p.o.): +15.2%
- % change in tibial breaking strains ([3]; 15 mg.kg^-1 p.o.): -4.6%
- % reduction of granuloma K+ ([3]; 15 mg.kg^-1 p.o.): -3.9%
- % reduction of granuloma Na+ ([3]; 15 mg.kg^-1 p.o.): 5.9%
- % reduction of granuloma Wet weight ([3]; 15 mg.kg^-1 p.o.): 2.7%
- Body Weight change ([3]; 15 mg.kg^-1 p.o.): +13.3 ± 2.6 g
- rats that died under anaesthesia ([3]; 15 mg.kg^-1 p.o., 2 control rats also died): 1 rat
- % increase paw volume ([5]; 10 doses): 59 ± 9%
- % reduction (cf. arachis oil control) ([5]; 10 doses): 46%
- Mean body weight change ([5]; female (F)): -2.0 g
- Mean body weight change ([5]; male (M)): -0.8 g
